Experimental data published in patent publication US20120178786A9, “Use of tetramic acid derivatives for controlling pests by drenching, drip application, or dip application” (priority 2006, published 2012).

Key:
Format in all cases: in vivo
[1] = tested on: citrus mealybug Pseudococcus citri (PSECCI); test: Example 12: drench of Coleus plants, Abbott efficacy; settings: 240 SC
Experimental: Coleus plants (approximate height 29 cm) in 6-inch pots which have been infected approximately 4 weeks before the treatment with citrus mealybug Pseudococcus citri (PSECCI) are drenched, in three replications, with an active substance solution containing the active substance I-4 (cis isomer, formulation: 240 SC) and, by way of comparison, with the commercial standard imidacloprid (240 SC) at the application rate stated. The greenhouse temperature is 29° C. The test is evaluated 7, 14, 21 and 28 days after the treatment by determining the efficacy with the aid of Abbott's formula.

Coccus viridis = test: Example 11: drench of gardenia plants, Henderson-Tilton efficacy against nymphs; settings: 240 SC
Experimental: Gardenia plants cv. […] The greenhouse temperature is 27° C. The test is evaluated 7, 15, 21 and 35 days after the treatment by determining the activity against nymphs on the leaves with the aid of the Henderson-Tilton method.

Thrips palmi = test: Example 7: drench of cucumber plots, Abbott efficacy; settings: 20 mg active substance/plant, two applications at 10-day interval, I-4 240 SC, imidacloprid 100 SL
Experimental: Plots approximately 5 m^2 in size and containing cucumber plants are drenched, in three replications, against Thrips palmi with an active substance solution containing the active substance I-4 (cis isomer, formulation: 240 SC) and, by way of comparison, with the standard imidacloprid (100 SL) at the application rate stated, corresponding to an approximate water application rate of 300 l/ha. Two applications are effected at a 10-day interval. The test is evaluated in each case 9 days after the first treatment and 7 and 13 days after the second treatment by determining the efficacy with the aid of Abbott's formula.

[2] = tested on: Trialeurodes vaporarium (TRIAVA); test: Example 9: drench of courgette plots, Abbott efficacy; settings: four treatments of 10 mg active substance/plant at 10-day intervals, I-4 240 SC, imidacloprid 200 SL
Experimental: Plots approximately 12 m^2 in size and containing courgette plants (47 days after sowing) are drenched, in three replications, against Trialeurodes vaporarium (TRIAVA) with 100 ml of an active substance solution per plant, containing the active substance I-4 (cis isomer, formulation: 240 SC) and, by way of comparison, with the standard imidacloprid (200 SL) at the application rate stated. Four applications are effected at 10-day intervals. The test is evaluated 21, 31, 38 and 45 days after the 1st treatment by determining the efficacy with the aid of Abbott's formula.

[3] = tested on: Frankliniella occidentalis (FRANOC); test: Example 6: drench of verbena plants, Henderson-Tilton efficacy against nymphs; settings: 12 mg active substance/1 potting compost, 240 SC
Experimental: Verbena plants (approximate height 13 cm) in 6-inch-pots which are infected with Frankliniella occidentalis (FRANOC) are drenched, in four replications, with an active substance solution containing the active substance I-4 (cis isomer, formulation: 240 SC) and, by way of comparison, with the commercial standard imidacloprid (240 SC) at the application rate stated. The greenhouse temperature is 27-33° C. The test is evaluated 7, 14, 21 and 28 days after the treatment by determining the activity against nymphs on the leaves with the aid of the Henderson-Tilton method.

[4] = tested on: Bemisia argentifolii (BEMIAR); test: Example 8: drench of tropical sage plants, Henderson-Tilton efficacy against nymphs; settings: 12 mg active substance/1 potting compost, 240 SC
Experimental: Tropical sage plants cv. “scarlet sage” (approximate height 29 cm) in 6-inch pots and infested with Bemisia argentifolii (BEMIAR) are drenched, in three replications, with an active substance solution containing the active substance I-4 (cis isomer, formulation: 240 SC) and, by way of comparison, with the commercial standard imidacloprid (240 SC) at the application rate stated. The greenhouse temperature is 27-33° C. The test is evaluated 9, 13, 20, 34 and 41 days after the treatment by determining the activity against nymphs on the leaves with the aid of the Henderson-Tilton method.

[5] = tested on: Madeira mealybug (Phenacoccus madeirensis); test: Example 13: drench of Coleus plants, Abbott efficacy; settings: 12 mg active substance/1 potting compost, 240 SC
Experimental: Coleus plants (approximate height 29 cm) in 6-inch pots which have been infected approximately 4 weeks before the beginning of the experiment with Madeira mealybug (Phenacoccus madeirensis) are drenched, in three replications, with an active substance solution containing the active substance I-4 (cis isomer, formulation: 240 SC) and, by way of comparison, with the commercial standard imidacloprid (240 SC) at the application rate stated. The greenhouse temperature is 29° C. The test is evaluated 7, 14, 21 and 28 days after the treatment by determining the efficacy with the aid of Abbott's formula.

Bemisia sp. = test: Example 15: drench of bell pepper plots, kill rate of larvae on the leaves
Experimental: Plots approximately 2×5 m in size which contain bell pepper plants are treated, in three replications, against Bemisia sp. The active substance example (I-4) cis isomer (240 SC) is drenched in an active substance solution at the application rate stated. The water application rate is 700 l/ha. Three treatments are carried out at intervals of 7 and 14 days. The test is evaluated in each case 7, 14, 21 and 28 days after the 3rd treatment by scoring the kill rate of the larvae on the leaves.

[6] = tested on: Tetranychus urticae (TETRUR); test: Example 5: drench of gardenia plants, Henderson-Tilton efficacy against nymphs; settings: 240 SC
Experimental: Gardenia plants cv. “Cape jasmine” in 6-inch pots which had been infected with Tetranychus urticae (TETRUR) two weeks before the beginning of the experiment are drenched, in three replications, with in each case 100 ml of active substance solution containing the active substance I-4 (cis isomer, formulation: 240 SC) and, by way of comparison, with the commercial standard imidacloprid (240 SC) at the application rate stated. The greenhouse temperature is 25-30° C. The test is evaluated 3, 15 and 22 days after the treatment by determining the activity against nymphs on the leaves with the aid of the Henderson-Tilton method.

[7] = 7 d after treatment, 12 mg active substance/1 potting compost
[8] = 21 d after treatment, 12 mg active substance/1 potting compost
[9] = 7 d after treatment, 24 mg active substance/1 potting compost
[10] = 21 d after treatment, 24 mg active substance/1 potting compost

SMILES	Abbott efficacy (%) against THRIPL (Thrips palmi; 7 d after 2nd treatm.)	Abbott efficacy (%) against THRIPL (Thrips palmi; 9 d after 1st treatm.)	Abbott efficacy (%) against THRIPL (Thrips palmi; 13 d after 2nd treatm.)	Abbott efficacy (%) against TRIAVA ([2]; 21 d after 1st treatment)	Abbott efficacy (%) against TRIAVA ([2]; 31 d after 1st treatment)	Abbott efficacy (%) against TRIAVA ([2]; 38 d after 1st treatment)	Abbott efficacy (%) against TRIAVA ([2]; 45 d after 1st treatment)	Henderson-Tilton efficacy (%) against FRANOC ([3]; 7 d after treatment)	Henderson-Tilton efficacy (%) against FRANOC ([3]; 14 d after treatment)	Henderson-Tilton efficacy (%) against FRANOC ([3]; 21 d after treatment)	Henderson-Tilton efficacy (%) against FRANOC ([3]; 28 d after treatment)	Henderson-Tilton efficacy (%) against Bemisia argentifolii ([4]; 9 d after treatment)	Henderson-Tilton efficacy (%) against Bemisia argentifolii ([4]; 13 d after treatment)	Henderson-Tilton efficacy (%) against Bemisia argentifolii ([4]; 20 d after treatment)	Henderson-Tilton efficacy (%) against Bemisia argentifolii ([4]; 34 d after treatment)	Henderson-Tilton efficacy (%) against Bemisia argentifolii ([4]; 41 d after treatment)	Abbott efficacy (%) against Phenacoccus madeirensis ([5]; 7 d after treatment)	Abbott efficacy (%) against Phenacoccus madeirensis ([5]; 14 d after treatment)	Abbott efficacy (%) against Phenacoccus madeirensis ([5]; 21 d after treatment)	Abbott efficacy (%) against Phenacoccus madeirensis ([5]; 28 d after treatment)	further results
O=[N+]([O-])NC1=NCCN1Cc1ccc(Cl)nc1 [Imidacloprid, imidacloprid, reference compound]	68.8%	73.7%	44.0%	88.1%	74.0%	77.2%	63.7%	100%	100%	49%	100%	94%	100%	95%	94%	100%	92%	83%	30%	44%	Abbott efficacy (%) against PSECCI [1, 7]: 30%; Abbott efficacy (%) against PSECCI ([1]; 14 d after treatment, 12 mg active substance/1 potting compost): 35%; Abbott efficacy (%) against PSECCI [1, 8]: 19%; Abbott efficacy (%) against PSECCI ([1]; 28 d after treatment, 12 mg active substance/1 potting compost): 16%; Henderson-Tilton efficacy (%) against Coccus viridis (Coccus viridis; [7]): 45%; Henderson-Tilton efficacy (%) against Coccus viridis (Coccus viridis; 15 d after treatment, 12 mg active substance/1 potting compost): 55%; Henderson-Tilton efficacy (%) against Coccus viridis (Coccus viridis; [8]): 66%; Henderson-Tilton efficacy (%) against Coccus viridis (Coccus viridis; 35 d after treatment, 12 mg active substance/1 potting compost): 100%; Efficacy (% Abbott) against Bemisia sp. (Bemisia sp.; 7 d after 3rd treatm., 10.5 mg/plant): 96.6 % Abbott; Efficacy (% Abbott) against Bemisia sp. (Bemisia sp.; 14 d after 3rd treatm., 10.5 mg/plant): 80.6 % Abbott; Efficacy (% Abbott) against Bemisia sp. (Bemisia sp.; 21 d after 3rd treatm., 10.5 mg/plant): 84.6 % Abbott; Efficacy (% Abbott) against Bemisia sp. (Bemisia sp.; 28 d after 3rd treatm., 10.5 mg/plant): 85.7 % Abbott; Henderson-Tilton efficacy (%) against TETRUR ([6]; 3 d after treatment, 38.4 mg active substance/1 potting compost): 72.7%; Henderson-Tilton efficacy (%) against TETRUR ([6]; 15 d after treatment, 38.4 mg active substance/1 potting compost): 82.2%; Henderson-Tilton efficacy (%) against TETRUR ([6]; 22 d after treatment, 38.4 mg active substance/1 potting compost): 0%
CCOC(=O)OC1=C(c2cc(C)ccc2C)C(=O)N[C@]12CC[C@@H](OC)CC2 [Example I-4]	64.1%	66.3%	80.0%	57.5%	85.9%	88.5%	85.7%	100%	100%	90%	100%	99%	100%	98%	100%	100%	84%	89%	99%	98%	Abbott efficacy (%) against PSECCI [1, 9]: 63%; Abbott efficacy (%) against PSECCI ([1]; 14 d after treatment, 24 mg active substance/1 potting compost): 91%; Abbott efficacy (%) against PSECCI [1, 10]: 94%; Abbott efficacy (%) against PSECCI ([1]; 28 d after treatment, 24 mg active substance/1 potting compost): 93%; Henderson-Tilton efficacy (%) against Coccus viridis (Coccus viridis; [9]): 35%; Henderson-Tilton efficacy (%) against Coccus viridis (Coccus viridis; 15 d after treatment, 24 mg active substance/1 potting compost): 45%; Henderson-Tilton efficacy (%) against Coccus viridis (Coccus viridis; [10]): 69%; Henderson-Tilton efficacy (%) against Coccus viridis (Coccus viridis; 35 d after treatment, 24 mg active substance/1 potting compost): 100%; Efficacy (% Abbott) against Bemisia sp. (Bemisia sp.; 7 d after 3rd treatm., 40 + 5 + 5 mg/plant, 240 SC): 86.2 % Abbott; Efficacy (% Abbott) against Bemisia sp. (Bemisia sp.; 14 d after 3rd treatm., 40 + 5 + 5 mg/plant, 240 SC): 94.4 % Abbott; Efficacy (% Abbott) against Bemisia sp. (Bemisia sp.; 21 d after 3rd treatm., 40 + 5 + 5 mg/plant, 240 SC): 94.9 % Abbott; Efficacy (% Abbott) against Bemisia sp. (Bemisia sp.; 28 d after 3rd treatm., 40 + 5 + 5 mg/plant, 240 SC): 90.5 % Abbott; Henderson-Tilton efficacy (%) against TETRUR ([6]; 3 d after treatment, 77 mg active substance/1 potting compost): 39.0%; Henderson-Tilton efficacy (%) against TETRUR ([6]; 15 d after treatment, 77 mg active substance/1 potting compost): 89.1%; Henderson-Tilton efficacy (%) against TETRUR ([6]; 22 d after treatment, 77 mg active substance/1 potting compost): 100%
